Measurements reported in publication PMC7084386, “Sulfonamide Inhibition Studies of an α-Carbonic Anhydrase from Schistosoma mansoni, a Platyhelminth Parasite Responsible for Schistosomiasis” (International Journal of Molecular Sciences, 2020).
Like-named read-outs stand apart in the source and are kept apart here.

Target: T1, SmCA (Schistosoma mansoni, UniProt A0A4Y5UX87)
T1 construct: rSmCA N21-A298, signal peptide and C-terminal GPI-anchoring signal removed; Igk leader, C-terminal myc and His6 tags; secreted by CHO-S cells, IMAC; codon-optimized gene; native ~37 kDa GPI-linked glycoprotein
T1 sequence (A0A4Y5UX87 21-298): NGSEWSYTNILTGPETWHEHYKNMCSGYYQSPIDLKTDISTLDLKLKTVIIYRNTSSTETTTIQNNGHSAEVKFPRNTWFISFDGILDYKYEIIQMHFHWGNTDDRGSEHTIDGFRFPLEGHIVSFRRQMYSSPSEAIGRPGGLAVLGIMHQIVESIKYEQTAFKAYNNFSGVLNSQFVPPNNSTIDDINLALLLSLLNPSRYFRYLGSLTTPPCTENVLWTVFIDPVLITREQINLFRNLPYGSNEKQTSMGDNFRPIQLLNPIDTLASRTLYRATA
Test: stopped-flow CO2 hydrase assay
Format: biochemical
From the text: stopped-flow CO2 hydrase assay on SmCA

Row | SMILES | Ki | Ki (read-out: SmCA ^b)
1 | NCCc1ccc(S(N)(=O)=O)cc1 [compound 6, 6] | 7240 ± 144 nM | 
2 | Nc1ccc(S(N)(=O)=O)cc1Br [compound 9, 9] |  | 808 ± 16.9 nM
3 | Nc1ccc(S(=O)(=O)NCc2ccc(S(N)(=O)=O)cc2)cc1 [compound 23, 23] |  | 524 ± 15.7 nM
4 | NS(=O)(=O)c1ccc(CCNS(=O)(=O)c2ccc([N+](=O)[O-])cc2CO)cc1 [compound 21, 21] |  | 163 ± 6.5 nM
5 | Nc1ccc(S(N)(=O)=O)cc1Cl [compound 8, 8] |  | 737 ± 19.1 nM
6 | NS(=O)(=O)c1ccc(CCO)cc1 [compound 17, 17] |  | 606 ± 21.3 nM
7 | Nc1nccc(Nc2ccc(S(N)(=O)=O)cc2)n1 [compound 19, 19] |  | 1830 ± 36.6 nM
8 | NS(=O)(=O)c1ccc(C(=O)O)cc1 [compound 18, 18] |  | 821 nM
9 | Nc1cc(Cl)c(S(N)(=O)=O)cc1S(N)(=O)=O [compound 12, 12] |  | 645 ± 19.9 nM
10 | NCc1ccc(S(N)(=O)=O)cc1 [compound 5, 5] |  | 9560 ± 191 nM
11 | Nc1ccc(S(=O)(=O)Nc2ccc(S(N)(=O)=O)cc2)cc1 [compound 22, 22] |  | 550 ± 14.8 nM
12 | Nc1cccc(S(N)(=O)=O)c1 [compound 1, 1] |  | 8420 ± 177 nM
13 | Nc1ccc(S(=O)(=O)Nc2nnc(S(N)(=O)=O)s2)cc1 [compound 20, 20] |  | 124 ± 5.9 nM
14 | NS(=O)(=O)c1cc(Cl)cc(Cl)c1O [compound 10, 10] |  | 9270 ± 185 nM
15 | NS(=O)(=O)c1ccc(CO)cc1 [compound 16, 16] |  | 1460 ± 32.1 nM
16 | NS(=O)(=O)c1ccc(O)cc1 [compound 15, 15] |  | 758 ± 26.5 nM
17 | Nc1nnc(S(N)(=O)=O)s1 [compound 13, 13] |  | 137 ± 6.5 nM
18 | Nc1cc(C(F)(F)F)c(S(N)(=O)=O)cc1S(N)(=O)=O [compound 11, 11] |  | 183 ± 9.1 nM
19 | Cc1ccc(S(N)(=O)=O)cc1 [compound 4, 4] |  | 4530 ± 90 nM
20 | Nc1ccc(S(=O)(=O)NCCc2ccc(S(N)(=O)=O)cc2)cc1 [compound 24, 24] |  | 183 ± 4.5 nM
21 | NS(=O)(=O)c1cccc(S(N)(=O)=O)c1 [compound 3, 3] |  | 916 ± 23.8 nM
22 | Cn1nc(S(N)(=O)=O)sc1=N [compound 14, 14] |  | 325 ± 6.5 nM
23 | Nc1ccc(S(N)(=O)=O)cc1 [compound 2, 2] |  | 6820 ± 150 nM
24 | Nc1ccc(S(N)(=O)=O)cc1F [compound 7, 7] |  | 3190 ± 70 nM
